Patent US20070135457A1, “Pyrido[2,3-d]pyrimidine-2,4-diamines as pde2 inhibitors” (Pfizer Inc., priority 2003, published 2007)
Read-outs that look alike come from different tables or passages of the source.

Columns and labels:
[1] = test system: femur (periosteal bone induction); assay: Rat periosteal injection model; assay type: in vivo; details: daily local injection five times per week for two weeks; Day 15; male Sprague-Dawley rats
Experimental: Rats were anesthetized with isoflurane (2-3 min) in a conduction chamber located in a fume hood. The right hindlimb of each rat was shaved and cleaned. A 25 gauge needle attached to a syringe was pre-filled with a formulation of the test compound for local injection. The formulation was injected onto the subperiosteum of femur in a volume of 5-15 μL for 14 days. The rats were sacrificed after dosing, the femurs were collected, and then analyzed by radiography and dual-energy X-ray absorptiometry (DEXA).
The right femur of three-week old male Sprague-Dawley rats received a daily injection of vehicle or test compound five times per week for two weeks. On Day 15, all rats were sacrificed and the right femurs were collected for analysis. Periosteal bone induction was assessed using radiography and DEXA. […] The bone mineral content (BMC) of the injected region of the femur (area between lesser trochanter and mid-shaft of the femur) was assessed by DEXA comparing rats treated with test compound with those treated only with vehicle. In this model, N^4-(3,5-dimethoxy-benzyl)-N^2-(2-pyridin-4-yl-ethyl)-pyrido[2,3-d]pyrimidine-2,4-diamine, 2-(3-{3-[4-(3,4-dimethoxy-benzylamino)-pyrido[2,3-d]pyrimidin-2-ylamino]-propyl}-phenyl)-propan-2-ol, and N^4-(3,4-dimethoxy-benzyl)-N^2-(3-phenyl-propyl)-pyrido[2,3-d]pyrimidine-2,4-diamine increased BMC by 34%, 49%, and 33% respectively. Additionally, 9-(1-acetyl-4-phenyl-butyl)-2-(3,4-dimethoxy-benzyl)-1,9-dihydropurin-6-one increased BMC by 20% in the aforementioned model.

[2] = biological target: T1, PDE 2 enzyme isolated from human platelets (Homo sapiens, UniProt O00408); assay: PDE 2 enzyme scintillation proximity assay (SPA); assay type: biochemical
T1 construct: PDE 2 enzyme was isolated from human platelets; from tissue; host or cells: human platelets (pooled blood from multiple donors); HiTrap Q anion-exchange fraction eluting at about 325 mM NaCl
Experimental: PDE 2 enzyme was isolated from human platelets with approximately 1.4 L of blood from multiple donors used to make the platelet pellets. Platelets were resuspended in approximately 75 mL of lysis buffer [20 mM Tris pH 7.2, 5 mM MgCl2, 250 mM Sucrose, 1 mM DTT, 1 μL/2 mL Sigma Protease inhibitor #8340; Sigma-Aldrich; St. Louis, Mo.] and lysed by sonication at 4° C., with 3 rounds of 1 min bursts then spun at 4° C. overnight at 100,000×g. Cleared lysates were loaded to AKTA Explorer FPLC (Amersham Biosciences; Piscataway, N.J.) in a series of three chromatographic separations, with an average load volume of 25 mL. A 5 mL HiTrap Q anion exchange column (Amersham Biosciences) was used. […] Two major cGMP activity fractions (PDE 5 and PDE 2) were isolated and pooled separately. The PDE 2-pooled fraction total was approximately 40 mL which was dispensed in cryovials of 200 μl/vial and placed in storage at −80° C.
The inhibitory activity of the compounds of formula (I) on recombinant or isolated PDE 2, and other PDE's, was determined using the […] scintillation proximity assay (SPA) kits from Amersham International (Little Chalfont, England). The SPA assays were performed using 96 well plates. The PDE SPA yttrium silicate beads (Amersham Biosciences) bind preferentially to the linear nucleotide, GMP, compared to the cyclic nucleotide, cGMP. ^3H-cGMP was added to the reaction and when the product, ^3H-GMP, was in […] to the beads, the scintillant within the bead was excited, which was detected using a Packard scintillation counter (Perkin-Elmer Life Sciences; Boston, Mass.). The enzyme concentration used was in the linear range and the Km of the enzyme was determined (15 uM). The final substrate concentration was <1/3 of Km (1 μM) so that IC50 values would approximate the Ki values. The assay was validated using literature compounds as controls before testing compounds. Then, PDE catalytic activity measurements obtained in the presence of the test compound, and those obtained in the absence of the test compound, were compared and the lC50 value is determined. […]

fractured right femurs = assay: Rat transverse femoral fracture model; assay type: in vivo; details: single 5 mg dose injected percutaneously into fracture site; three weeks after injection; male rats
Experimental: Male Sprague-Dawley rats at 3 to 4 months of age were used. The animals were anesthetized with ketamine and xylazine at doses of 100 and 10 mg/kg, respectively. The right hindlimb of each rat was shaved and cleaned. A 1 cm incision was made just lateral to the patella and the femoral condyle was exposed. A Kirschner wire (0.045″ in diameter) was introduced into the intramedullary canal through the intercondylar portion to serve as an internal stabilization. The muscle incision was closed with vicryl and the skin incision was closed with stainless steel wound clips. The mid-diaphysis of the pinned femur was fractured by means of a three-point bending device driven by a dropped weight. The rats were permitted full weight-bearing and unrestricted activity after awakening from anesthesia. The test compounds were administered on various days after surgery by percutaneous injection onto the fracture site. The animals were sacrificed after treatment and the femurs were collected for analysis. Fracture healing was evaluated by using radiography, histological, and biomechanical test (F. Bonnarens, et al., Journal of Orthopaedic Research, 2, 97-101 (1984).
Three month-old male rats were subjected to transverse fracture of their right femurs under general anesthesia. […] Three weeks after the injections, the rats were sacrificed and the right femurs were harvested and analyzed. […]

[3] = SPA, 1 μM substrate, read-out: PDE 2 Inhibition

T1 sequence (O00408 whole entry): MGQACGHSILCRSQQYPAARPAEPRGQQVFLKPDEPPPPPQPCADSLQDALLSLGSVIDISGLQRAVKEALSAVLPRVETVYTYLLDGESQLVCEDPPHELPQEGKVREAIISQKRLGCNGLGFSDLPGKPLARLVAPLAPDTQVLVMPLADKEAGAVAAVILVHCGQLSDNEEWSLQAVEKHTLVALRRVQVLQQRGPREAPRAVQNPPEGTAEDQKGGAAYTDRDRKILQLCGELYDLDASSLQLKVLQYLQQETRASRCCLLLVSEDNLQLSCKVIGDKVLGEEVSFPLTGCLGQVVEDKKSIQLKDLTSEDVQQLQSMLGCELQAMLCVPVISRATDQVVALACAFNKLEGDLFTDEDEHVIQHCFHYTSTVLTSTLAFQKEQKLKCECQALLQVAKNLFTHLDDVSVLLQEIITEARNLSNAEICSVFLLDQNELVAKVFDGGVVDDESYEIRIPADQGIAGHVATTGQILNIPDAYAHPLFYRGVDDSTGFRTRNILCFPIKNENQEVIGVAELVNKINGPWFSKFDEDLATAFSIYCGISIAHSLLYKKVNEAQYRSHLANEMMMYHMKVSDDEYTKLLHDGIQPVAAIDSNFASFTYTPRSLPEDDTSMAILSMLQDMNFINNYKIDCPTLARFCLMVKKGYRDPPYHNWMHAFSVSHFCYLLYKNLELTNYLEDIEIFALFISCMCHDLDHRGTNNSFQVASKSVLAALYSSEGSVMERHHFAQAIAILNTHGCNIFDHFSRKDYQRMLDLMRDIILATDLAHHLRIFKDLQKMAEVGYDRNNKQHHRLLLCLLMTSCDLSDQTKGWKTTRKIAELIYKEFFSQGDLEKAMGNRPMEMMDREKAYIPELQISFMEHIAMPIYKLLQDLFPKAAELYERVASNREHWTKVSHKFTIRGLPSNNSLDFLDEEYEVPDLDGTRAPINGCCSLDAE

Row | Structure (SMILES) | IC50 ([2]; PDE 2, read-out: IC50) [nM] | melting point [°C] | IC50 [2, 3] [nM] | bone mineral content (BMC) increase of injected region of femur by DEXA vs vehicle [1] [%] | Force-to-failure increased compared to placebo (fractured right femurs) [%] | stiffness increased compared to placebo (fractured right femurs) [%]
1 | COc1ccc(Cc2nc3c(ncn3C(CCCc3ccccc3)C(C)=O)c(=O)[nH]2)cc1OC (stereo not shown) [9-(1-acetyl-4-phenyl-butyl)-2-(3,4-dimethoxy-benzyl)-1,9-dihydropurin-6-one, reference compound] | 3 | – | – | 20 | – | –
2 | COc1cc(CNc2nc(NCCc3ccncc3)nc3ncccc23)cc(OC)c1 [Example 3, N^4-(3,5-Dimethoxy-benzyl)-N^2-(2-pyridin-4-yl-ethyl)-pyrido[2,3-d]pyrimidine-2,4-diamine] | – | 234 to 235 | 250 to 1000 | 34 | – | –
3 | COc1ccc(CNc2nc(NCCCc3cccc(C(C)(C)O)c3)nc3ncccc23)cc1OC [Example 29, 2-(3-{3-[4-(3,4-Dimethoxy-benzylamino)-pyrido[2,3-d]pyrimidin-2-ylamino]-propyl}-phenyl)-propan-2-ol] | – | 204 to 205 | 250 to 1000 | 49 | – | –
4 | COc1ccc(CNc2nc(NCCCc3ccc(C#N)cc3)nc3ncccc23)cc1OC [Example 30, 4-{3-[4-(3,4-Dimethoxy-benzylamino)-pyrido[2,3-d]pyrimidin-2-ylamino]-propyl}-benzonitrile] | – | 220 to 222 | 250 to 1000 | – | – | –
5 | COc1ccc(CNc2nc(NCCCc3ccccc3)nc3ncccc23)cc1OC [Example 32, N^4-(3,4-Dimethoxy-benzyl)-N^2-(3-phenyl-propyl)-pyrido[2,3-d]pyrimidine-2,4-diamine] | – | 190 to 192 | 250 to 1000 | 33 | 19 | 62
6 | COc1cc(CNc2nc(NCCOc3ccccc3)nc3ncccc23)cc(OC)c1 [Example 33, N^4-(3,5-Dimethoxy-benzyl)-N^2-(3-phenoxy-ethyl)-pyrido[2,3-d]pyrimidine-2,4-diamine] | – | 165 to 167 | 50 to 250 | – | – | –

Second part, led by results:

Row | IC50 ([2]; PDE 2, read-out: IC50) [nM] | melting point [°C] | IC50 [2, 3] [nM] | Structure (SMILES) | bone mineral content (BMC) increase of injected region of femur by DEXA vs vehicle [1] [%] | Force-to-failure increased compared to placebo (fractured right femurs) [%] | stiffness increased compared to placebo (fractured right femurs) [%]
7 | – | 181 to 182 | 250 to 1000 | CCOc1cc(CNc2nc(NCCCc3ccccc3)nc3ncccc23)ccc1OC [Example 34, N^4-(3-Ethoxy-4-methoxy-benzyl)-N^2-(3-phenyl-propyl)-pyrido[2,3-d]pyrimidine-2,4-diamine] | – | – | –
8 | – | 150 to 152 | 250 to 1000 | CCOc1cc(CNc2nc(NCCCc3ccc(C(C)(C)O)cc3)nc3ncccc23)ccc1OC [Example 35, 2-(4-{3-[4-(3-Ethoxy-4-methoxy-benzylamino)-pyrido[2,3-d]pyrimidin-2-ylamino]-propyl}-phenyl)-propan-2-ol] | – | – | –
9 | – | 198 to 200 | 250 to 1000 | COc1ccc(CNc2nc(NCCCc3ccc(C(=O)C(F)(F)F)cc3)nc3ncccc23)cc1OC [Example 36, 1-(4-{3-[4-(3,4-Dimethoxy-benzylamino)-pyrido[2,3-d]pyrimidin-2-ylamino]-propyl}-phenyl)-2,2,2-trifluoro-ethanone] | – | – | –
10 | – | 152 to 155 | 250 to 1000 | COc1ccc(CNc2nc(NCCCc3cccc(C(C)=O)c3)nc3ncccc23)cc1OC [Example 37, 1-(3-{3-[4-(3,4-Dimethoxy-benzylamino)-pyrido[2,3-d]pyrimidin-2-ylamino]-propyl}-phenyl)-ethanone] | – | – | –
